{"source": "patent US8097585B2", "about": "“Methods of treating inflammation by administration of heme oxygenase-1 and products of heme degradation” (priority 2002, dated 2012)", "key": {"[1]": {"test_system": "IL-6", "assay": "Real time RT-PCR of graft muscularis after SITx, IL-6", "format": "in vivo, LEW rats", "procedure": "(§1) Small Intestinal Transplantation. Orthotopic small intestinal transplantation (SITx) was performed in syngeneic Lewis rats. SITx with caval drainage was performed using a previously described procedure (Murase et al., in Handbook of Animal Models in Transplantation Research, Cramer et al., Eds. CRC Press, Boca Raton, Fla., pp. 203-213 (1994)). […] The graft was perfused via the aortic segment with 5 ml chilled Ringer's lactate solution, and the intestinal lumen was irrigated with 20 ml of cold saline solution containing 0.5% neomycin-sulfate (Sigma, St. Louis, Mo.). End-to-side anastomoses between the graft aorta and the recipient infrarenal aorta, and between the graft portal vein and recipient vena cava, were performed with 10-0 Novafil™ suture. The cold ischemic time was 1 hour. The entire recipient intestine was removed and the enteric continuity was restored by proximal and distal end-to-end intestinal anastomoses. Recipient animals were given 20 mg/day prophylactic cefamandole nafate for 3 postoperative days. Transplanted recipients were given water 3 hours after surgery, and were fed 24 hours after surgery.\n(§2) SYBR green real time RT-PCR. The effects of administration of biliverdin on transplant-induced pro-inflammatory and anti-inflammatory gene expression were assessed in muscularis extracts by RT-PCR Biliverdin ([…], i.p.) was administered to both the donor and recipient three hours preoperatively. The muscularis externae was collected from normal intestine and transplanted grafts 4 hours postoperatively and snap frozen in liquid nitrogen. […] Equal aliquots (5 μg) of total RNA from each sample were quantified by spectrophotometry (wavelength […]) and aliquoted at a concentration of 40 ng/μl. Peak mRNA expression was quantified in duplicate by SYBR Green two-step, real-time RT-PCR. […] Real-time PCR data were plotted as the ΔRn fluorescence signal versus the cycle number. […] Quantification of mRNA expression was normalized to GAPDH and calculated relative to control using the comparative CT method (Schmittgen et al., J. Biochem. Biophys. Methods 46(1-2):69-8, 2000). […]"}, "[2]": {"test_system": "MnSOD", "assay": "Real time RT-PCR of graft muscularis after SITx, MnSOD", "format": "in vivo, LEW rats", "details": "BV treatment", "procedure": "(§3) Small Intestinal Transplantation. Orthotopic small intestinal transplantation (SITx) was performed in syngeneic Lewis rats. SITx with caval drainage was performed using a previously described procedure (Murase et al., in Handbook of Animal Models in Transplantation Research, Cramer et al., Eds. CRC Press, Boca Raton, Fla., pp. 203-213 (1994)). […] The graft was perfused via the aortic segment with 5 ml chilled Ringer's lactate solution, and the intestinal lumen was irrigated with 20 ml of cold saline solution containing 0.5% neomycin-sulfate (Sigma, St. Louis, Mo.). […]\nas §2, with “preoperatively.” for “preoperatively. The muscularis externae was collected from normal intestine and transplanted grafts 4 hours postoperatively and snap frozen in liquid nitrogen.”"}, "[3]": {"test_system": "SITx recipients", "assay": "Animal survival after SITx with 6 hours cold preservation", "format": "in vivo, LEW rats", "details": "14 days follow-up; 8/8; saline control 57.1%", "procedure": "as §1, with “The cold ischemic time was 1 hour.” left out\nAnimal survival. Six hours of cold preservation in UW of the intestinal graft induced intestinal dysfunction in untreated recipients; 3 out of 14 control animals died within 24 hours and an additional 3 animals died 5 and 7 days after SITx due to bowel obstruction secondarily to intestinal I/R injury. […]"}, "[4]": {"test_system": "B6AF1 splenocytes", "assay": "Mixed lymphocyte culture (irradiated DBA/2 splenocytes as stimulators) in vitro", "format": "cell-based, mouse", "details": "biliverdin 10 μM", "procedure": "Mixed lymphocyte culture (MLC). Irradiated (25Gy, ^137Cs) DBA/2 splenocytes (5×10^5/well) were co-cultured with responders (5×10^5/well) in a 96 well round bottom plates for 3 days at 37° C., 95% air with 5% CO2. When using cells from cardiac recipients as responders, the co-culture period was 3 days without any further in vitro treatment. ^3H-thymidine (1 μCi/well) was added 16 hours before termination of cell culture, and ^3H-thymidine incorporation was measured."}, "[5]": {"test_system": "COX-2", "assay": "Real time RT-PCR of graft muscularis after SITx, COX-2", "format": "in vivo, LEW rats", "details": "BV treated rats", "procedure": "as §3\nas §2, with “preoperatively.” for “preoperatively. The muscularis externae was collected from normal intestine and transplanted grafts 4 hours postoperatively and snap frozen in liquid nitrogen.”"}, "[6]": {"test_system": "IL-1β", "assay": "Real time RT-PCR of graft muscularis after SITx, IL-1β", "format": "in vivo, LEW rats", "details": "BV 50 mmol/kg i.p. donor and recipient; 4 hours; versus saline-treated graft", "procedure": "as §3\nas §2, with “preoperatively.” for “preoperatively. The muscularis externae was collected from normal intestine and transplanted grafts 4 hours postoperatively and snap frozen in liquid nitrogen.”"}, "[7]": {"test_system": "iNOS", "assay": "Real time RT-PCR of graft muscularis after SITx, iNOS", "format": "in vivo, LEW rats", "procedure": "as §3\nas §2, with “preoperatively.” for “preoperatively. The muscularis externae was collected from normal intestine and transplanted grafts 4 hours postoperatively and snap frozen in liquid nitrogen.”"}}, "note": "Where a name gives a salt, the structure may show the parent alone."}
{"smiles": "C=CC1=C(C)/C(=C/C2=NC(=C\\c3[nH]c(/C=C4\\NC(=O)C(C)=C4C=C)c(C)c3CCC(=O)O)/C(CCC(=O)O)=C2C)NC1=O", "note": "[biliverdin, biliverdin dihydrochloride]", "values": [{"measurement": "reduction of IL-6 mRNA expression", "setting": "[1]; BV 50 mmol/kg i.p. donor and recipient, 4 hours, versus saline-treated graft", "value": 24, "unit": "%"}, {"measurement": "basal mRNA expression of any of the cytokines", "setting": "[1]; BV treatment of unoperated animals", "value": "did not alter"}, {"measurement": "MnSOD expression in the graft", "setting": "[2]", "value": "significantly reduced"}, {"measurement": "overall animal survival", "setting": "[3]", "value": 100, "unit": "%"}, {"measurement": "alloantigen mediated T cell activation (proliferation)", "setting": "[4]", "value": "significant suppressive effect"}, {"measurement": "reduction of mean relative COX-2 mRNA expression", "setting": "[5]", "value": "approximately 50%"}, {"measurement": "reduction of IL-1b mRNA expression", "setting": "[6]", "value": 30, "unit": "%"}, {"measurement": "reduction of mean relative iNOS mRNA expression", "setting": "[7]; BV treated rats, graft muscularis", "value": "approximately 50%"}, {"measurement": "mRNA expression of iNOS or COX-2", "setting": "[7]; BV treatment of unoperated control animals", "value": "did not alter"}]}
